The values below come from article PMC13702766, “Pharmacokinetic-Modifying Linker Design Modulates Performance of Multivalent PSMA/GRPR-Cell-Targeting ^177Lu Radiopharmaceuticals” (Cancers, 2026).

In the test the target is T1, PSMA (Homo sapiens, UniProt Q04609).
T1 construct: LNCaP whole cells were prepared in suspension; host or cells: LNCaP human prostate carcinoma cells
In words: Whole-cell competitive binding assay in PSMA[+] LNCaP cells vs [177Lu]Lu-PSMA-617. The protocol:
LNCaP whole cells were prepared in suspension (7.50 × 10^5 cells/mL) in binding media (DMEM + 0.2% BSA + 25 mM HEPES). […] Samples were incubated at room temperature for 60 min, centrifuged, and the supernatant was removed. Cell pellets were washed twice with ice-cold PBS and subsequently counted using an automated gamma counter. […] IC50 values were determined by nonlinear regression in GraphPad Prism, with all experiments performed in triplicate.

T1 sequence (Q04609 whole entry): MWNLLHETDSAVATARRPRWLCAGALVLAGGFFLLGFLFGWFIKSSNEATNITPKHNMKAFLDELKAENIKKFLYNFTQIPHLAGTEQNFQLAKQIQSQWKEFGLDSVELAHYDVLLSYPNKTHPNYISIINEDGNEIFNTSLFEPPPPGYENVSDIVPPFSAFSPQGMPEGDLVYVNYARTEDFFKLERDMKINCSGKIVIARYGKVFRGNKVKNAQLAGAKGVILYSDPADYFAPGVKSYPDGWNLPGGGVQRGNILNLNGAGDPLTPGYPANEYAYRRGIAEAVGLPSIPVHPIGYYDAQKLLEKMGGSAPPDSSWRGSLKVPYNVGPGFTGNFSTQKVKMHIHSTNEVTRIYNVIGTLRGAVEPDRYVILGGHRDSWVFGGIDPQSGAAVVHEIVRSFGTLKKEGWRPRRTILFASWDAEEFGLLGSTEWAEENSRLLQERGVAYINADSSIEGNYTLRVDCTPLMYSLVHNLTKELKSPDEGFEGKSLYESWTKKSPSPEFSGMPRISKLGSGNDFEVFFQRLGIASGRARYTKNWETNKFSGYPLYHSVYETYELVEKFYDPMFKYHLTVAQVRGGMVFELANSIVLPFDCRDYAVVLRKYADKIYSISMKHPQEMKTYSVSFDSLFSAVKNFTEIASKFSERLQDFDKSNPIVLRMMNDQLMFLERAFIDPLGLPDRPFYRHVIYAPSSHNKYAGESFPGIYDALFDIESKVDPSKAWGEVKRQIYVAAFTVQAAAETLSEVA

In general, IC50 refers to the concentration that gives 50% inhibition. The compound `O=C(O)CC[C@H](NC(=O)N[C@@H](CCCCNC(=O)[C@H](Cc1ccc2ccccc2c1)NC(=O)[C@H]1CC[C@H](CNC(=O)CN2CCN(CC(=O)O)CCN(CC(=O)O)CCN(CC(=O)O)CC2)CC1)C(=O)O)C(=O)O` [PSMA-617] registered an IC50 of 2.7 ± 0.1 nM.
